In publication PMC6385203, “Mutations in the palm domain disrupt modulation of acid-sensing ion channel 1a currents by neuropeptides” (Scientific Reports, 2019) one finds EC50 data, which are given here for one compound.

This assay has as its target T1, ASIC1a N416C (Homo sapiens, UniProt P78348, N416C).
T1 construct: expressed in transfected cells; host or cells: Xenopus laevis oocytes injected with cRNA
T1 sequence (P78348 1-528 N416C): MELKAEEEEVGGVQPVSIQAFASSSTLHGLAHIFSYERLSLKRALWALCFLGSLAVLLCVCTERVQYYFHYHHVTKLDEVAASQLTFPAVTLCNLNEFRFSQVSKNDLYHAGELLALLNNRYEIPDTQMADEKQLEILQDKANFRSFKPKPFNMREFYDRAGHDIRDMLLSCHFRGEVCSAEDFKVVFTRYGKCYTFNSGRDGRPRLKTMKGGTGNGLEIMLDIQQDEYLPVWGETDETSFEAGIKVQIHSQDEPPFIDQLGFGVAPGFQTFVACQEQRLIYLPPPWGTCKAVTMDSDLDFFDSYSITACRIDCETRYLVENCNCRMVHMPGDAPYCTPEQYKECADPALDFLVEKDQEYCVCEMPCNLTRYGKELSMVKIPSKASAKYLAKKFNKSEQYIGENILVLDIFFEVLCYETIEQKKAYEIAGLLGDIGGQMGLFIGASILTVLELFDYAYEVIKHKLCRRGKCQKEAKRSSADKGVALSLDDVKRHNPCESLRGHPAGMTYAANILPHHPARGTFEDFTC
Put plainly: Isust/Ipeak, TEVC in Xenopus oocytes. Particulars: pH5, n = 6–7, mean ± SEM, read-out: EC50 of FRRFa (Isust/Ipeak). The assay is classed as cell-based. An excerpt: To test the docking predictions, Cys mutants of palm and other proximal residues predicted to interact with the peptide were made. Since most of these residues are large and hydrophilic, the mutation to Cys changed the side chain properties substantially. Therefore, and because MTSET modification of many palm residues leads to currents with a large sustained component[22] that may render the measurement of FRRFa effects difficult, we exposed only the Cys mutants of hydrophobic residues (I307C and V414C) to 1 mM MTSET prior to the experiments with FRRFa. Asp212 was mutated to Gly (and not Cys), since we have previously observed that this residue is very sensitive to mutation, and that it is in most ASIC1a orthologs and even in several human ASIC1a clones a Gly. […] Due to the extremely small FRRFa-induced Isust/Ipeak ratio changes it was not possible to determine the EC50 of FRRFa on these mutants. To learn more about the nature of the Isust/Ipeak ratio increase by the N416C mutation, we measured the EC50 of FRRFa, which was 6 ± 2 μM (Fig. 6e, n = 6–7). […]
Electrophysiological measurements were performed 1–2 days after cRNA injection. Ion currents were recorded using two-electrode voltage-clamp at a holding potential of −60 mV with a Dagan TEV-200 amplifier (Minneapolis, MN). […] The amplitude of the sustained current was measured in the last two seconds of the pH5 perfusion. […]

SMILES strings stand for the structures. Peptide text beside a SMILES is read from it.

On to `N=C(N)NCCC[C@H](NC(=O)[C@H](CCCNC(=N)N)NC(=O)[C@@H](N)Cc1ccccc1)C(=O)N[C@@H](Cc1ccccc1)C(N)=O` [FRRFa, Phe-Arg-Arg-Phe-amide] (H-FRRF-NH2), for which the EC50 came to 6 ± 2 µM.
